Earlier results, collected in paper PMC12394912 (RSC Chemical Biology, 2025).

Cc1ncsc1-c1ccc(CNC(=O)[C@@H]2C[C@@H](O)CN2C(=O)[C@@H](NC(=O)COCCOCCOCCNC(=O)C[C@@H]2N=C(c3ccc(Cl)cc3)c3c(sc(C)c3C)-n3c(C)nnc32)C(C)(C)C)cc1 [MZ1]
PAMPA permeability, fold lower than E3 ligand VH032: ~290 fold | PAMPA permeability, fold lower than POI ligand JQ1: approximately 190 fold
